Data published in patent US20230097475A1, “TREATMENT FOR CHONDRODYSTROPHIA” (Kyoto University, priority 2020, published 2023).

Columns and labels:
[1] = system: FGFR3^Y367C/+ mouse model of achondroplasia; details: reported in NPL 6; cited from earlier work
mutant FGFR3G^380R/+ = details: at 50 nM; cited from earlier work
FGFR3 ACH mice [2] = assay: Bone extension effect using achondroplasia model mouse (Example 2); format: in vivo
Protocol: (§1) FGFR3 ACH mice (Naski, M. C. et al., Development, 1998, 125(24): 4977-88; hereinbelow, simply referred to as ACH mice) were used. FVB strain ACH mice were subjected to artificial insemination to produce a large number of F1 hybrid mice. Genomic DNA was then extracted, and the gene type was determined by a PCR method. […] Mice at the age of 43 days were euthanized, and the weight measurement and the bone (femur, tibia, and ulna) length measurement by X-ray photographing were performed. The X-ray photographing was performed using a Faxitron X-Ray DX-50 (AcroBio Corporation), and the measurements were performed with Image J. For testing significance, a Dunnett's multiple comparison test was conducted. In FIGS. 1 to 5, * indicates p<0.05, ** indicates p<0.01, and *** indicates p<0.001.
Subsequently, the femur was isolated from the mice after dosing. The cartilage growth plate was then stained with safranin O, and the length thereof was measured. The average width of the growth plate of ACH mice was 148.3.

FGFR3 ACH mice [3] = assay: Bone extension effect using achondroplasia model mice, male and female (Example 3); format: in vivo; details: male 1, 3 or 10 mg/kg, female 1, 3 or 6 mg/kg, measured at 43 days old, vs vehicle group
Protocol: as §1
For testing significance, a Dunnett's multiple comparison test was conducted. In FIGS. 6 to 11, * indicates p<0.05, ** indicates p<0.01, *** indicates p<0.001, and **** indicates p<0.0001.

[4] = system: TD1-iPS cells and ACH-iPS cells; assay: Drug efficacy in disease iPS cell models, chondrocyte differentiation; format: cell-based, human
Excerpt: iPS cell lines were established from dermal fibroblasts of patients with thanatophoric dysplasia type I (TD1, R248C) and cartilage intangibility (ACH, […]), and dermal fibroblasts of healthy individuals, and induced their differentiation into chondrocytes. Cartilage tissue was formed from healthy iPS cells, whereas a cartilage component was reduced in tissue induced from TD1-iPS cells and tissue induced from ACH-iPS cells (Yamashita et al., Nature, 2014, 513 (7519): 507-11).
Rosuvastatin was used as a positive control. As evaluation items, tissue section staining (Safranin staining), and the expression of mRNAs of COL2A1 and Aggrecan (ACAN) were used as indexes. For testing significance, an unpaired test was conducted. In FIG. 13, * indicates p<0.05.

[5] = 1 nM, 10th week of differentiation induction, vs cells free of Compound 1, FIG. 13

Structure (SMILES) | Treatment effect on mouse model of achondroplasia [1] | Kinase inhibitory effect (mutant FGFR3G^380R/+) | Average width of the femur growth plate (safranin O staining) (FGFR3 ACH mice [2]; ACH mice after dosing, dose not stated, ACH mice without compound 148.3, FIG. 4) | Bone extension effect (femur, tibia, ulna length; growth plate cartilage thickness) (FGFR3 ACH mice [2]; ACH mice, 0.1, 1 or 3 mg/kg intraperitoneal once a day, 5 days on 2 days off, age 21 to 42 days, measured at 43 days old, vs vehicle group) | Bone extension effect (femur, tibia, ulna length) (FGFR3 ACH mice [3]) | Safranin staining of glycosaminoglycans (cartilage extracellular matrix) ([4]; 1 nM added at each medium change from day 3, analysis at 10th week of differentiation induction, FIG. 12) | Expression of mRNA of ACAN [4, 5] | Expression of mRNA of COL2A1 [4, 5]
CCN1CCN(c2ccc(Nc3cc(N(C)C(=O)Nc4c(Cl)c(OC)cc(OC)c4Cl)ncn3)cc2)CC1 [NVP-BGJ398] | has a treatment effect | has a kinase inhibitory effect | – | – | – | – | – | –
C=CC(=O)N1CC[C@H](n2nc(C#Cc3cc(OC)cc(OC)c3)c3c(N)ncnc32)C1 [Compound 1, 1-[(3S)-3-[4-amino-3-[2-(3,5-dimethoxyphenyl)ethynyl]-1H-pyrazolo[3,4-d]pyrimidin-1-yl]-1-pyrrolidinyl]-2-propen-1-one] | – | – | 206.4 μm | concentration-dependent bone extension effect was observed | concentration-dependent bone extension effect was observed | positive safranin staining image was observed | increased | increased
